These results are taken from US7192572B2, “Compound delivery systems” (Conopco, Inc., priority 2002, dated 2007).

The assay in a line: cooling effect perceived on ingestion of the example compositions (microemulsion tea beverage, water ice, toothpaste). The class given is in vivo, human. As to conditions: ingestion in the form of the compositions of Examples 1-3, relative to the same amount of the cooling active alone.

In the case of `COc1ccccc1N1CC=C(c2cccc([N+](=O)[O-])c2)NC1=O` [1-(2′-methoxyphenyl)-4-(3″-nitrophenyl)-1,2,3,6-tetrahydropyrimidine-2-one], the cooling effect perceived result is “prolonged the cooling effect perceived”. For `CC1CCC(C(C)C)C(O)C1` (centres unmarked) [menthol, 2-isopropyl-5-methyl-cyclohexanol], the cooling effect perceived result was “prolonged the cooling effect perceived”.
